Patent EP1351977B1, “ANTIMICROBIAL PSEUDOPEPTIDES” (INSTITUT NATIONAL DE LA RECHERCHE AGRONOMIQUE (INRA), priority 2001, dated 2004)
Ends that are not written are not given here.

How the values were obtained:
Assay type in all cases: cell-based
[1] = test system: Botrytis cinerea sp; experiment: Antifungal growth inhibition test in liquid medium
[2] = test system: Botrytis cinerea myc; experiment: Antifungal growth inhibition test in liquid medium
[3] = test system: Cladosporium sp; experiment: Antifungal growth inhibition test in liquid medium
[4] = test system: Cladosporium myc; experiment: Antifungal growth inhibition test in liquid medium
[5] = test system: Helminthosporium teres sp; experiment: Antifungal growth inhibition test in liquid medium
[6] = test system: Fusarium culmorum sp; experiment: Antifungal growth inhibition test in liquid medium
Text: (§1) Les composés des pics 5, 7 et 8 de la figure 1 ont été testées vis-à-vis d'un ensemble de champignons phytopathogènes. Trois doses (10, 20, et 40 ppm) ont été employées pour chacun des composés.
(§2) L'activité antifongique a été détectée par un test d'inhibition de croissance en milieu liquide. Les spores des champignons à tester ont été mises en suspension dans un milieu de culture de type "Pomme de terre-Glucose". De préférence, on utilise 12 g de milieu Potato Dextrose Broth (Difco) pour 1 litre d'eau déminéralisée. Deux antibiotiques ont été rajoutés au milieu de culture: la tétracycline (concentration finale de 10 µg/ml) et la céfotaxime (100 µg/ml). On dépose 10 µl de chaque composé à tester dans des plaques de microtitration en présence de 90 µl de milieu de culture contenant les spores (à une concentration finale de 10^4 spores/ml). L'incubation a été réalisée en chambre humide à 30°C durant 48 heures. La croissance fongique a été observée au microscope photonique après 24 h et quantifiée après 48 heures par mesure de l'absorbance à 600 nm à l'aide d'un spectrophotomètre lecteur de plaque de microtitration. L'activité des composés contre les champignons phytopathogènes est exprimée par un pourcentage d'inhibition de croissance correspondant à 100 x (1 - absorbance avec produit/ absorbance du témoin sans produit), l'absorbance étant mesurée à 600 nm, 5 jours après le début de l'expérience.

[7] = test system: Phytophthora myc; experiment: Antifungal growth inhibition test in liquid medium
Text: as §1, §2

[8] = test system: Septoria tritici sp; experiment: Antifungal growth inhibition test in liquid medium
[9] = test system: Escherichia coli CIP548; experiment: Bacterial growth inhibition test in Petri dish (solid medium), MIC; conditions: MIC extrapolated from inhibition diameter vs log10 concentration
[10] = test system: Salmonella sp.; experiment: as above; conditions: MIC extrapolated from inhibition diameter vs log10 concentration
Description: Deux tests ont été utilisés pour mesurer l'activité antibactérienne des pseudopeptides, un test d'inhibition de la croissance bactérienne en microplaques (de 96 puits) en milieu liquide et un test d'inhibition de la croissance bactérienne en boîte de Pétri en milieu solide. • * Test en microplaques: La culture bactérienne à tester est prélevée en phase exponentielle, puis diluée au 1/500^ème dans du milieu liquide TSB frais. Chaque puits de la microplaque est rempli avec 100 µl de suspension bactérienne diluée. Dans le premier puits, 100 µl de l'échantillon de pseudopeptide à tester est ajouté à la suspension bactérienne, puis l'échantillon est dilué de 2 en 2 en transférant d'un puits à l'autre 100 µl de suspension. La lecture de la microplaque se fait en mesurant la densité optique à […] (DO600nm) après 24h d'incubation à 28°C ou 37°C selon les bactéries cibles. Connaissant la concentration en pseudopeptide de l'échantillon de départ, ce test permet de déterminer la valeur de la CMI (Concentration Minimale d'Inhibition de la croissance bactérienne). Dans ce test, la CMI correspond à la concentration de l'échantillon pour lequel la DO600nm est inférieure à celle du témoin de culture. • * Test en boîte de Pétri: La culture bactérienne à tester est prélevée en phase exponentielle, puis incorporée à 10 ml d'une gélose dite "sous-couche" (Agarose 1% poids/vol; NaCl 100 mM; Trypcase 0.03 % poids/vol; Tampon phosphate 10 mM pH7.4) à raison de 2.10^5 bactéries/ml. Le mélange est coulé dans une boîte de Pétri ordinaire. 9 puits d'environ 10 µl de volume sont formés dans la "sous-couche" à l'aide d'un embout de pipette stérile de 10 ml. Ces puits sont remplis avec une série de dilutions des pseudopeptides à tester (concentration initiale 500 µg/ml, et dilution de deux en deux jusqu'à 1,95 µg/ml). Après diffusion à température ambiante pendant 2h, une gélose dite "sur-couche" (Agarose 1% wt/vol; Trypcase 6 % wt/vol; Tampon phosphate 10 mM pH7.4) est ajoutée sur la sous-couche à raison de 5 à 10 ml. Après solidification, l'ensemble est mis à incuber pendant une nuit. Le diamètre d'inhibition de la culture bactérienne autour de chaque puits est mesuré en mm; il existe une relation linéaire entre le diamètre d'inhibition et le log10 de la concentration en pseudopeptide qui permet de déterminer par extrapolation la valeur de la CMI.
Une première série de résultats a été obtenue en utilisant le test en boîte de Pétri vis-à-vis de bactéries non pathogènes issues de la collection de Travaux pratiques du laboratoire de Pathologie Comparée de l'Université de Montpellier (France). Dans cette série, les pseudopeptides des pics 5, 7, 8,10 et 11 ont été testés (Tableau 4).

[11] = test system: Klebsiella pneumoniae; experiment: as above; conditions: MIC extrapolated from inhibition diameter vs log10 concentration
[12] = test system: Proteus vulgaris CIP58.60; experiment: as above; conditions: MIC extrapolated from inhibition diameter vs log10 concentration
[13] = test system: Serratia entomophila; experiment: as above; conditions: MIC extrapolated from inhibition diameter vs log10 concentration
[14] = test system: Staphylococcus aureus; experiment: as above; conditions: MIC extrapolated from inhibition diameter vs log10 concentration
[15] = test system: Staphylococcus epidermidis; experiment: as above; conditions: MIC extrapolated from inhibition diameter vs log10 concentration
[16] = test system: Streptococcus Gr. D; experiment: as above; conditions: MIC extrapolated from inhibition diameter vs log10 concentration
[17] = test system: Pseudomonas fluorescens; experiment: as above; conditions: MIC extrapolated from inhibition diameter vs log10 concentration
[18] = test system: Bacillus megaterium; experiment: as above; conditions: MIC extrapolated from inhibition diameter vs log10 concentration

## Composé 8: pseudopeptide du pic n° 8 de Xenorhabdus nematophilus F1; Famille 1: Lys Lys Lys Lys Lys Gly; 1066 Da; structure en Figure 2 (KKKKKG; also: pseudopeptide modifications)
[1]; 10 ppm
  pourcentage d'inhibition de croissance: 52%
[1]; 20 ppm
  pourcentage d'inhibition de croissance: 95%
[1]; 40 ppm
  pourcentage d'inhibition de croissance: 94%
[2]; 10 ppm
  pourcentage d'inhibition de croissance: 40%
[2]; 20 ppm
  pourcentage d'inhibition de croissance: 70%
[2]; 40 ppm
  pourcentage d'inhibition de croissance: 93%
[3]; 10 ppm
  pourcentage d'inhibition de croissance: 94%
[3]; 20 ppm
  pourcentage d'inhibition de croissance: 94%
[3]; 40 ppm
  pourcentage d'inhibition de croissance: 94%
[4]; 10 ppm
  pourcentage d'inhibition de croissance: 70%
[4]; 20 ppm
  pourcentage d'inhibition de croissance: 92%
[4]; 40 ppm
  pourcentage d'inhibition de croissance: 91%
[5]; 10 ppm
  pourcentage d'inhibition de croissance: 76%
[5]; 20 ppm
  pourcentage d'inhibition de croissance: 94%
[5]; 40 ppm
  pourcentage d'inhibition de croissance: 92%
[6]; 10 ppm
  pourcentage d'inhibition de croissance: 96%
[6]; 20 ppm
  pourcentage d'inhibition de croissance: 96%
[6]; 40 ppm
  pourcentage d'inhibition de croissance: 96%
[7]; 10 ppm
  pourcentage d'inhibition de croissance: 76%
[7]; 20 ppm
  pourcentage d'inhibition de croissance: 78%
[7]; 40 ppm
  pourcentage d'inhibition de croissance: 77%
[8]; 10 ppm
  pourcentage d'inhibition de croissance: 87%
[8]; 20 ppm
  pourcentage d'inhibition de croissance: 88%
[8]; 40 ppm
  pourcentage d'inhibition de croissance: 86%
[9]
  CMI: 7,5 µg/ml
[10]
  CMI: 30 µg/mL
[11]
  CMI: 15 µg/mL
[12]
  CMI: 100 µg/mL
[13]
  CMI: 30 µg/mL
[14]
  CMI: 15 µg/mL
[15]
  CMI: 30 µg/mL
[16]
  CMI: 200 µg/mL
[17]
  CMI: 3 µg/mL
[18]
  CMI: 1,5 µg/ml
